Assay results from patent publication US4209511A, “Aminoglycoside antibiotics and process for production thereof” (Yamanouchi Pharmaceutical Co., Ltd., priority 1978, dated 1980).
Converted amounts (≈) assume the structure as drawn. Like-named read-outs stand apart in the source and are kept apart here.

Experiments:
[1] = tested on: Micrococcus flavus ATCC 10240; experiment: Minimum inhibitory concentration, Micrococcus flavus ATCC 10240; type: cell-based
[2] = tested on: Sarcina lutea ATCC 9341; experiment: Minimum inhibitory concentration, Sarcina lutea ATCC 9341; type: cell-based; conditions: Micrococcus luteus
[3] = tested on: Staphylococcus aureus Smith; experiment: Minimum inhibitory concentration, Staphylococcus aureus Smith; type: cell-based; conditions: read-out: Minimum Inhibitory Concentration
[4] = tested on: Mycobacterium phlei; experiment: Minimum inhibitory concentration, Mycobacterium phlei; type: cell-based; conditions: Mycolicibacterium phlei, read-out: Minimum Inhibitory Concentration
[5] = tested on: Escherichia coli NIHJ; experiment: Minimum inhibitory concentration, Escherichia coli NIHJ; type: cell-based; conditions: read-out: Minimum Inhibitory Concentration
[6] = tested on: Salmonella enteritidis 1891; experiment: Minimum inhibitory concentration, Salmonella enteritidis 1891; type: cell-based; conditions: Salmonella enterica, read-out: Minimum Inhibitory Concentration
[7] = tested on: Shigella sonnei II 37148; experiment: Minimum inhibitory concentration, Shigella sonnei II 37148; type: cell-based; conditions: II37148
[8] = tested on: Proteus vulgaris OXK US; experiment: Minimum inhibitory concentration, Proteus vulgaris OXK US; type: cell-based; conditions: read-out: Minimum Inhibitory Concentration
[9] = tested on: Pseudomonas aeruginosa ATCC 8689; experiment: Minimum inhibitory concentration, Pseudomonas aeruginosa ATCC 8689; type: cell-based
[10] = tested on: Pseudomonas melanogenum IAM 1655; experiment: Minimum inhibitory concentration, Pseudomonas melanogenum IAM 1655; type: cell-based
[11] = tested on: Staphylococcus aureus Onuma (PC-,SM-,Mac-resistant); experiment: Minimum inhibitory concentration, Staphylococcus aureus Onuma (PC-,SM-,Mac-resistant); type: cell-based; conditions: read-out: Minimum Inhibitory Concentration
[12] = tested on: Staphylococcus aureus (PC-,SM-,TC-,KM-,Mac-resistant); experiment: Minimum inhibitory concentration, Staphylococcus aureus (PC-,SM-,TC-,KM-,Mac-resistant); type: cell-based; conditions: read-out: Minimum Inhibitory Concentration
[13] = tested on: Escherichia coli K-12 ML-1629; experiment: Minimum inhibitory concentration, Escherichia coli K-12 ML-1629; type: cell-based; conditions: K12ML1629; Escherichia coli K-12 ML-1629 (inactivates aminoglycosides with a phosphotransferase)
[14] = tested on: Escherichia coli K-12 R-5; experiment: Minimum inhibitory concentration, Escherichia coli K-12 R-5; type: cell-based; conditions: for MIC: K12R5, Escherichia coli K-12 R-5 (inactivates aminoglycosides with an acetyltransferase)
[15] = tested on: Pseudomonas aeruginosa 99; experiment: Minimum inhibitory concentration, Pseudomonas aeruginosa 99; type: cell-based; conditions: Pseudomonas aeruginosa 99 (inactivates aminoglycosides with an acetyltransferase)
[16] = tested on: Pseudomonas aeruginosa GN-315; experiment: Minimum inhibitory concentration, Pseudomonas aeruginosa GN-315; type: cell-based
[17] = Solubility; type: physicochemical; conditions: free base (lyophilized product)
[18] = in vivo; conditions: mouse, iv
[19] = ATCC10240, Micrococcus flavus ATCC 10240, read-out: Minimum Inhibitory Concentration
[20] = ATCC9341, read-out: Minimum Inhibitory Concentration
[21] = Pseudomonas aeruginosa, ATCC8689, read-out: Minimum Inhibitory Concentration
[22] = Pseudomonas, IAM1655, read-out: Minimum Inhibitory Concentration
[23] = Staphylococcus aureus Onuma (PC-,SM-,Mac-resistant)
[24] = Staphylococcus aureus (PC-,SM-,TC-,KM-,Mac-resistant)
[25] = GN315, Pseudomonas aeruginosa GN-315, read-out: Minimum Inhibitory Concentration
[26] = ATCC9341, Sarcina lutea ATCC 9341, read-out: Minimum Inhibitory Concentration
[27] = ATCC8689, Pseudomonas aeruginosa ATCC 8689, read-out: Minimum Inhibitory Concentration
[28] = IAM1655, Pseudomonas melanogenum IAM 1655, read-out: Minimum Inhibitory Concentration
[29] = Pseudomonas aeruginosa, GN315, read-out: Minimum Inhibitory Concentration
[30] = Micrococcus flavus, ATCC10240, read-out: Minimum Inhibitory Concentration

| Compound | MIC [1, 19] [µg/mL] | MIC [2, 20] [µg/mL] | MIC ([3]; Staphylococcus aureus Smith) [µg/mL] | MIC [4] [µg/mL] | MIC ([5]; Escherichia coli NIHJ) [µg/mL] | MIC ([6]; Salmonella enteritidis 1891) [µg/mL] | MIC [7] [µg/mL] | MIC ([8]; Proteus vulgaris) [µg/mL] | MIC [9, 21] [µg/mL] | MIC [10, 22] [µg/mL] | MIC [11, 23] [µg/mL] | MIC [12, 24] [µg/mL] | MIC [13] [µg/mL] | MIC [14] [µg/mL] | MIC [15] [µg/mL] | MIC [16, 25] [µg/mL] | MIC [2, 26] [µg/mL] | MIC ([4]; Mycobacterium phlei) [µg/mL] | Solubility in acetone [17] | Solubility in chloroform, benzene, ethyl acetate, butyl acetate, ether, n-hexane, etc. [17] | other results |
| --- | --- | --- | --- | --- | --- | --- | --- | --- | --- | --- | --- | --- | --- | --- | --- | --- | --- | --- | --- | --- | --- |
| NC[C@@H]1CC[C@@H](N)[C@@H](O[C@H]2[C@H](O)[C@@H](O[C@H]3O[C@H](CO)[C@@H](O)[C@H](N)[C@H]3O)[C@H](N)C[C@@H]2N)O1 [DKB, Dibekacin, reference compound] | 3.13 (≈ 6.93 µM) | 1.56 (≈ 3.45 µM) | 0.78 (≈ 1.73 µM) | 1.56 (≈ 3.45 µM) | 0.78 (≈ 1.73 µM) | 0.78 (≈ 1.73 µM) | 1.56 (≈ 3.45 µM) | 1.56 (≈ 3.45 µM) | 1.56 (≈ 3.45 µM) | 1.56 (≈ 3.45 µM) | 0.19 (≈ 0.421 µM) | 0.19 (≈ 0.421 µM) | 1.56 (≈ 3.45 µM) | 100 (≈ 221 µM) | 1.56 (≈ 3.45 µM) | 100 (≈ 221 µM) |  |  |  |  |  |
| CNC1C(O)C(OC2C(N)CC(N)C(OC3OC(CN)CCC3O)C2O)OC(CO)C1(C)O (centres unmarked) [I-A2, 3"-N-Methyl-4"-C-methyl-3',4'-dideoxykanamycin A or its 4"-epimer] | 0.78 (≈ 1.62 µM) |  |  |  | 1.56 (≈ 3.25 µM) | 1.56 (≈ 3.25 µM) | 3.13 (≈ 6.51 µM) | 3.13 (≈ 6.51 µM) |  |  |  | 6.25 (≈ 13 µM) | 3.13 (≈ 6.51 µM) | > 100 | 12.5 (≈ 26 µM) | > 100 | 0.78 (≈ 1.62 µM) | 1.56 (≈ 3.25 µM) | sparingly soluble | insoluble | MIC ([3]; Staphylococcus aureus): 3.13 µg/mL (≈ 6.51 µM); MIC [9, 27]: 6.25 µg/mL (≈ 13 µM); MIC [10, 28]: 6.25 µg/mL (≈ 13 µM); MIC ([11]; Staphylococcus aureus): 3.13 µg/mL (≈ 6.51 µM); Solubility in ethanol [17]: sparingly soluble; Solubility in methanol [17]: soluble; Solubility in water [17]: Very easily soluble |
| CNCC1CCC(N)C(OC2C(N)CC(N)C(OC3OC(CO)C(C)(O)C(NC)C3O)C2O)O1 (centres unmarked) [I-B1, 3"-N-Methyl-4"-C-methyl-3',4'-dideoxy-6'-N-methylkanamycin B or its 4"-epimer] | 0.39 (≈ 0.79 µM) |  | 0.39 (≈ 0.79 µM) |  | 0.78 (≈ 1.58 µM) | 0.78 (≈ 1.58 µM) | 0.78 (≈ 1.58 µM) |  | 3.13 (≈ 6.34 µM) | 1.56 (≈ 3.16 µM) | 0.19 (≈ 0.385 µM) | 0.19 (≈ 0.385 µM) | 1.56 (≈ 3.16 µM) | 1.56 (≈ 3.16 µM) | 3.13 (≈ 6.34 µM) |  | 0.39 (≈ 0.79 µM) | 0.78 (≈ 1.58 µM) | sparingly soluble | insoluble | MIC ([8]; Proteus vulgaris OXK US): 0.78 µg/mL (≈ 1.58 µM); inhibited the growth of resistant bacteria ([14]; Escherichia coli K-12 R-5, inactivates Kanamycin B by acetylating the 6'-amino group): inhibited the growth; inhibited the growth of resistant bacteria ([16]; Pseudomonas aeruginosa GN 315, inactivates Kanamycin B by acetylating the 6'-amino group): inhibited the growth; MIC [16, 29]: 1.56 µg/mL (≈ 3.16 µM); Solubility in ethanol [17]: soluble; Solubility in methanol [17]: soluble; Solubility in water [17]: Very easily soluble |
| CNC1C(O)C(OC2C(N)CC(N)C(OC3OC(CN)CCC3N)C2O)OC(CO)C1(C)O (centres unmarked) [I-B2, 3"-N-Methyl-4"-C-methyl-3',4'-dideoxykanamycin B or its 4"-epimer] | 0.39 (≈ 0.813 µM) |  | 0.39 (≈ 0.813 µM) |  | 0.78 (≈ 1.63 µM) | 0.39 (≈ 0.813 µM) | 0.78 (≈ 1.63 µM) |  |  | 1.56 (≈ 3.25 µM) | 0.19 (≈ 0.396 µM) | 0.19 (≈ 0.396 µM) | 1.56 (≈ 3.25 µM) | 25 (≈ 52.1 µM) | 6.25 (≈ 13 µM) | 50 (≈ 104 µM) | 0.39 (≈ 0.813 µM) | 0.39 (≈ 0.813 µM) | sparingly soluble | insoluble | MIC ([8]; Proteus vulgaris OXK US): 0.78 µg/mL (≈ 1.63 µM); MIC [9, 27]: 3.13 µg/mL (≈ 6.53 µM); Solubility in ethanol [17]: sparingly soluble; Solubility in methanol [17]: soluble; Solubility in water [17]: Very easily soluble; MTD [18]: 125 mg/kg |
| NCC1OC(OC2C(N)CC(N)C(OC3OC(CO)C(O)C(N)C3O)C2O)C(O)C(O)C1O (centres unmarked) [KM-A, Kanamycin A, reference compound] |  | 3.13 (≈ 6.46 µM) |  | 1.56 (≈ 3.22 µM) |  |  | 3.13 (≈ 6.46 µM) | 6.25 (≈ 12.9 µM) | > 100 |  |  |  | > 100 | > 100 | 100 (≈ 206 µM) |  |  |  |  |  | MIC [1, 30]: 6.25 µg/mL (≈ 12.9 µM); MIC ([3]; Staphylococcus aureus): 3.13 µg/mL (≈ 6.46 µM); MIC ([5]; Escherichia coli): 3.13 µg/mL (≈ 6.46 µM); MIC ([6]; ENTERITIDIS): 3.13 µg/mL (≈ 6.46 µM); MIC [10, 28]: > 100 µg/mL; MIC ([11]; Staphylococcus aureus): 1.56 µg/mL (≈ 3.22 µM); MIC ([12]; Staphylococcus aureus): > 100 µg/mL; MIC [16, 29]: > 100 µg/mL |
| NC[C@H]1O[C@H](O[C@H]2[C@H](O)[C@@H](O[C@H]3O[C@H](CO)[C@@H](O)[C@H](N)[C@H]3O)[C@H](N)C[C@@H]2N)[C@H](N)[C@@H](O)[C@@H]1O [KM-B, Kanamycin B, reference compound] |  | 0.78 (≈ 1.61 µM) |  | 3.13 (≈ 6.47 µM) |  |  | 1.56 (≈ 3.23 µM) | 6.25 (≈ 12.9 µM) | 100 (≈ 207 µM) | 50 (≈ 103 µM) | 0.78 (≈ 1.61 µM) | 50 (≈ 103 µM) | > 100 | > 100 | 50 (≈ 103 µM) | 100 (≈ 207 µM) |  |  |  |  | MIC [1, 30]: 1.56 µg/mL (≈ 3.23 µM); MIC ([5]; Escherichia coli): 1.56 µg/mL (≈ 3.23 µM); MIC ([6]; ENTERITIDIS): 1.56 µg/mL (≈ 3.23 µM) |
